Results published in publication PMC7999318 (International Journal of Molecular Sciences, 2021).

Tests used:
CYPs-ELuc-HepG2 cells [1] = system: CYPs-ELuc-HepG2 cells
ELuc-HepG2 cells [2] = system: ELuc-HepG2 cells
wild-type HepG2 cells = details: cited from earlier work
CYPs-HepG2 cells = details: cited from earlier work
CYPs-ELuc-HepG2 cells [3] = system: CYPs-ELuc-HepG2 cells; remark: listed apart in the source
ELuc-HepG2 cells [4] = system: ELuc-HepG2 cells; remark: listed apart in the source
ELuc-HepG2 cells [5] = system: ELuc-HepG2 cells; remark: listed apart in the source
CYPs-ELuc-HepG2 cells [6] = system: CYPs-ELuc-HepG2 cells; remark: listed apart in the source

Molecule	bioluminescence intensity (ELuc-HepG2 cells [2])	bioluminescence intensity (CYPs-ELuc-HepG2 cells [1])	cytotoxicity (wild-type HepG2 cells)	cytotoxicity (CYPs-HepG2 cells)	bioluminescence intensity in real time (CYPs-ELuc-HepG2 cells [3])	bioluminescence intensity in real time (ELuc-HepG2 cells [4])	also measured
CCCCCCCCCCCCOS(=O)(=O)[O-].[Na+] [SDS, sodium dodecyl sulfate]							concentration-response curves compared with ELuc-HepG2 cells (bioluminescence) (CYPs-ELuc-HepG2 cells [1]; 3 days): very similar concentration-response curves
Nn1nnc2ccccc21 [ABT, 1-aminobenzotriazole]	not affected	not affected					
COc1cc2c(c3oc4cccc(O)c4c(=O)c13)[C@@H]1C=CO[C@@H]1O2 [sterigmatocystin]			not	showed cytotoxicity			
aflatoxin B1	did not decrease	concentration-dependent decrease	not	showed cytotoxicity	time- and concentration-dependent decreases	no decrease	decrease of bioluminescence intensity under CYP3A4 inhibitor (CYPs-ELuc-HepG2 cells [3]): partially diminished; IC50 (CYPs-ELuc-HepG2 cells [3]; read-out: first IC50 value): 7.9 µM; first IC50 value (ELuc-HepG2 cells [4]): not observed; IC50 values during long-term culture (CYPs-ELuc-HepG2 cells [1]): almost unchanged; aflatoxin B1 concentration-dependent decrease of bioluminescence intensity under CYP inhibitor (CYPs-ELuc-HepG2 cells [1]): completely diminished
OC[C@@H](O)[C@@H](O)[C@H](O)[C@H](O)CO [D-mannitol]	no remarkable changes	no remarkable changes					bioluminescence intensities during long-term culture (CYPs-ELuc-HepG2 cells [1]): no significant changes; viability by WST-1 assay (ELuc-HepG2 cells [5]): no remarkable changes; viability by WST-1 assay (CYPs-ELuc-HepG2 cells [6]): no remarkable changes
COc1cc(NC(C)CCCN)c2ncccc2c1 (centres unmarked) [primaquine]					much faster decrease	Time- and concentration-dependent decreases	decrease of bioluminescence intensity under CYP2D6 inhibitor (CYPs-ELuc-HepG2 cells [3]): partially abolished; time at which the first IC50 value was noted (CYPs-ELuc-HepG2 cells [3]): 12 h; time at which the first IC50 value was noted (ELuc-HepG2 cells [4]): 22 h
